# Tested on: uterine weight associated with rat deciduoma formation
# Test: Test Example 5: antiprogesterone activity, uterine weight associated with rat deciduoma formation in ovariectomized rats
# Format: in vivo
# Conditions: 192 h, 8 days, read-out: inhibition rate of uterine weight increase (antiprogesterone action)
# Method: For the compound A and the compound D (mifepristone), the antiprogesterone activity was measured. Specifically, a sex hormone and a test substance were repeatedly administered to ovariectomized rats as a test system to examine the antiprogesterone action (antiprogesterone activity) based on, as an index, the fluctuation of the uterine weight (the inhibitory action relative to the increase of the weight) associated with rat deciduoma formation.
# More specifically, rats (female, Crl:CD(SD), 5-week-old: Charles River Laboratories Japan, Inc.) were subjected to ovariectomy, and from one (1) week after the ovariectomy, a high dose estrone or 5 μg/one animal was hypodermically administered to the rats once a day for three (3) days. From the day after one day rest period, the rats received, once a day over eight (8) days, hypodermic administration of a low dose estrone (1 μg/one animal), intramuscular administration of progesterone (6 mg/kg), and oral administration of a test substance. In the middle of the administration, on Day 4 of the start of administration, the rats were subjected to a stimulation treatment of decidualization reaction to the right uterus. The day after the final administration, the uterine weight (right uterine body) was measured (n=6). Group E was subjected to ovariectomy and a stimulation treatment of decidualization reaction but was not subjected to a hormone treatment.
# The test substances and the dosage in the test system (ovariectomized rats) are as follows. • Group E: rats with ovariectomy without hormone treatment • 0.5 v/v % Polysorbate 80 solution, 10 mL/kg (n=6) • Solvent group (control group): 0.5 v/v % Polysorbate 80 solution, 10 mL/kg (n=6) • Group A3: Compound A, 3 mg/kg (n=6) • Group A10: Compound A, 10 mg/kg (n=6) • Group A30: Compound A, 30 mg/kg (n=6) • Group D: Compound D (mifepristone), 3 mg/kg (n=6)
smiles,measurement,setting,value
"CC(=O)O[C@]1(C(C)=O)C[C@@H](O)[C@H]2[C@@H]3C=C(Cl)C4=CC(=O)OC[C@]4(C)[C@H]3CC[C@@]21C [Compound A, 17α-acetoxy-6-chloro-15β-hydroxy-2-oxa-4,6-pregnadiene-3,20-dione]",inhibition at 3 mg/kg,"Group A3: 3 mg/kg oral once a day, not significant",15%
same,inhibition at 10 mg/kg,"Group A10: 10 mg/kg oral once a day, significant",63%
same,inhibition at 30 mg/kg,"Group A30: 30 mg/kg oral once a day, significant",83.3%
